# Assay results from US9290511B2, “Thieno-pyrimidines, useful as potassium channel inhibitors” (XENTION LIMITED, priority 2011, dated 2016).
# Target: T1, Kir3.1/3.4 (Rattus norvegicus, UniProt P48548+P63251)
# T1 construct: expressed in transfected cells
# T1 sequence (P63251 1-501): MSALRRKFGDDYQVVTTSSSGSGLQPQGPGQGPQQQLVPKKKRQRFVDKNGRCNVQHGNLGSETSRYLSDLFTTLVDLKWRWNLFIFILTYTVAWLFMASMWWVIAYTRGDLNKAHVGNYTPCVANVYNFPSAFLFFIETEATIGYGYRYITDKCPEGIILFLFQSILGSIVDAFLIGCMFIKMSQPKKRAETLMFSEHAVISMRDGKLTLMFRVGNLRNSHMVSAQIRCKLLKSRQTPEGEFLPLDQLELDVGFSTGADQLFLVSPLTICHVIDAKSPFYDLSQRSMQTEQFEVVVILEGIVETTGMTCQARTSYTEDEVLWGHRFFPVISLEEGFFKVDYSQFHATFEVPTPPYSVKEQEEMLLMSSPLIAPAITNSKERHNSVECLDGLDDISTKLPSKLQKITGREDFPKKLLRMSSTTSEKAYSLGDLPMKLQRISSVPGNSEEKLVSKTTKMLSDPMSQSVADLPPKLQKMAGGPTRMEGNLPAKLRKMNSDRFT
# T1 sequence (P48548 1-419): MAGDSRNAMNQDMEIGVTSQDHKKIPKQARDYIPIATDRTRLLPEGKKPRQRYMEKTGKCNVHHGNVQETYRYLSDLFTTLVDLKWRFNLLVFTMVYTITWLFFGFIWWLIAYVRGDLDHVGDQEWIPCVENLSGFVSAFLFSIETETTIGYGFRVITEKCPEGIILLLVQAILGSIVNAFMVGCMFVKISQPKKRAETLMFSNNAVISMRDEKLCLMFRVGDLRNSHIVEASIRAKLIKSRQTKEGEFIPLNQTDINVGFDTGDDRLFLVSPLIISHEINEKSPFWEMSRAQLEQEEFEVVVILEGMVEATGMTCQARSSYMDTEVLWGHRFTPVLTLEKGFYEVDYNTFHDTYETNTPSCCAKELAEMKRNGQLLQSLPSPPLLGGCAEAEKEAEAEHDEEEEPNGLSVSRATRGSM
# Test: Kir3.1/3.4 Electrophysiology Method (manual whole-cell patch clamp)
# Format: cell-based
# Conditions: Electrophysiology Method (TABLE 1)
# Description: Compound activity against the recombinant G-protein activated inward rectifier current encoded by the heterotetramer Kir3.1/3.4 was assessed using manual whole-cell patch technique. The heterotetramer forms the pore-forming channel that conducts the acetylcholine/adenosine-activated potassium current in the heart.
# For whole-cell patch-clamp studies, cells (Human Embryonic Kidney 293 stably transfected with rat Kir3.1/3.4) were seeded onto glass coverslips before recordings were made. Cells were seeded in sterile 30 mm Petri dishes at a density to enable isolated cells to be selected for patch clamp experiments. The dishes were stored in a humidified, gassed (5% CO2) incubator at 37° C. until use.
# Whole-cell patch-clamp recordings of membrane currents were made following gigaohm seal formation between the patch electrode and the cell using HEKA EPC-9/10 amplifiers controlled by Pulse Software (Ver8.5x/8.6×/8.7×, HEKA, Germany). Coverslips seeded with cells were placed in a recording chamber mounted on the stage of an inverted microscope. During the experiment, the cell of interest was continuously superfused with bather solution delivered via a cannula placed in close proximity to the cell to enable control of the extracellular solution environment. Only those cells with a current <−500 pA (current at −140 mV) were used for experiments. During experiments, series resistance was compensated by a minimum of 70%.
# Electrophysiology voltage-step protocols and analysis of data were performed as follows. Data was sampled at 5 kHz, and filtered with a −3 dB bandwidth of 2.5 kHz. Cells were held at a voltage of −60 mV. Currents were evoked by a depolarising voltage step to +60 mV (100 ms) before a ramp-repolarisation (0.4 V·s^−1) to −140 mV (100 ms) before returning to −60 mV. The command waveform was repeatedly applied every 10 s throughout the experiment. Mean currents during 1-99% of the time at −140 mV were analysed using Pulsefit software (v8.x, HEKA, Germany). The voltage protocol was repeatedly applied to achieve a stable current baseline in bather before the test substance was superfused via the cannula in close proximity to the cell under investigation. The test substance was allowed to equilibrate during which time voltage protocol was repeatedly applied and recorded. On reaching steady-state inhibition, the cell was superfused with an identical bather solution containing zero external potassium chloride (replaced by equimolar NaCl). The identical current measurement was made in the absence of potassium to assess the passive leak at −140 mV. The leak current was subtracted from the control and steady-state drug current values. The percentage inhibition of the leak-subtracted current in the presence of test substance was calculated relative to the control leak-subtracted pre-drug value. Internal patch-pipette solution contained in mM: 110 KCl, 20 NaCl, 0.9 GTPγS, 5 Mg-ATP, 5 EGTA, 10 HEPES, pH7.2 corrected with KOH. The external superfusate composition in mM was: 150 (or 160) NaCl, 10 (or 0) KCl, 3 CaCl2, 1 MgCl, 10 HEPES, pH 7.4 corrected with NaOH.
row,Compound,IC50 [nM]
1,8-azabicyclo[3.2.1]octan-3-amine [Example 325],< 500
2,"Cc1csc2ncnc(N3CCC(COCCC4CCCN4C)CC3)c12 (stereo not shown) [Example 2, 5-methyl-4-[4-[2-(1-methylpyrrolidin-2-yl)ethoxymethyl]-1-piperidyl]thieno[2,3-d]pyrimidine]",500 to 3000
3,"CN1CCCC1COCC1CCN(c2ncnc3scc(-c4ccccc4)c23)CC1 (stereo not shown) [Example 7, 4-[4-[(1-methylpyrrolidin-2-yl)methoxymethyl]-1-piperidyl]-5-phenyl-thieno[2,3-d]pyrimidine]",< 500
4,"c1ccc(-c2csc3ncnc(N4CCC(COC5CCC5)CC4)c23)cc1 [Example 9, 4-[4-(cyclobutoxymethyl)-1-piperidyl]-5-phenyl-thieno[2,3-d]pyrimidine]",< 500
5,"Fc1ccc(-c2csc3ncnc(N4CCC(COCCN5CCOCC5)CC4)c23)cc1 [Example 21, 4-[2-[[1-[5-(4-fluorophenyl)thieno[2,3-d]pyrimidin-4-yl]-4-piperidyl]methoxy]ethyl]morpholine]",< 500
6,"CCc1c(C)sc2ncnc(N3CCC(COCCC4CCCN4C)CC3)c12 (stereo not shown) [Example 24, 5-ethyl-6-methyl-4-[4-[2-(1-methylpyrrolidin-2-yl)ethoxymethyl]-1-piperidyl]thieno[2,3-d]pyrimidine]",< 500
7,"O=C1CN(CCOCC2CCN(c3ncnc4scc(-c5ccccc5)c34)CC2)CCN1 [Example 28, 4-[2-[[1-(5-phenylthieno[2,3-d]pyrimidin-4-yl)-4-piperidyl]methoxy]ethyl]piperazin-2-one]",500 to 3000
8,"F[C@@H]1CCN(CCOCC2CCN(c3ncnc4scc(-c5ccccc5)c34)CC2)C1 [Example 32, 4-[4-[2-[(3R)-3-fluoropyrrolidin-1-yl]ethoxymethyl]-1-piperidyl]-5-phenyl-thieno[2,3-d]pyrimidine]",< 500
9,"CN1CCCCC1CCOCC1CCN(c2ncnc3scc(-c4cccc(F)c4)c23)CC1 (stereo not shown) [Example 36, 5-(3-fluorophenyl)-4-[4-[2-(1-methyl-2-piperidyl)ethoxymethyl]-1-piperidyl]thieno[2,3-d]pyrimidine]",< 500
10,"c1ccc(-c2csc3ncnc(N4CC5C(COCCN6CCOCC6)C5C4)c23)cc1 (stereo not shown) [Example 38, 4-[2-[[3-(5-phenylthieno[2,3-d]pyrimidin-4-yl)-3-azabicyclo[3.1.0]hexan-6-yl]methoxy]ethyl]morpholine]",500 to 3000
11,"CN(C)S(=O)(=O)c1ccc(-c2csc3ncnc(N4CCC(COCCN5CCCC5)CC4)c23)cc1 [Example 44, N,N-dimethyl-4-[4-[4-(2-pyrrolidin-1-ylethoxymethyl)-1-piperidyl]thieno[2,3-d]pyrimidin-5-yl]benzenesulfonamide]",500 to 3000
12,"NC(=O)[C@H]1CCCN1CCOCC1C2CN(c3ncnc4scc(-c5ccc(F)cc5)c34)CC12 (stereo partly drawn) [Example 45, (2R)-1-[2-[[3-[5-(4-fluorophenyl)thieno[2,3-d]pyrimidin-4-yl]-3-azabicyclo[3.1.0]hexan-6-yl]methoxy]ethyl]pyrrolidine-2-carboxamide]",< 500
13,"Fc1ccc(-c2csc3ncnc(N4CC5C(COCCN6CC[C@H](F)C6)C5C4)c23)cc1 (stereo partly drawn) [Example 47, 5-(4-fluorophenyl)-4-[6-[2-[(3S)-3-fluoropyrrolidin-1-yl]ethoxymethyl]-3-azabicyclo[3.1.0]hexan-3-yl]thieno[2,3-d]pyrimidine]",< 500
14,"c1ccc(-c2csc3ncnc(N4CCC(CNCC5CC5)CC4)c23)cc1 [Example 49, 1-cyclopropyl-N-[[1-(5-phenylthieno[2,3-d]pyrimidin-4-yl)-4-piperidyl]methyl]methanamine]",< 500
15,"CCCNCC1CCN(c2ncnc3scc(-c4ccccc4)c23)CC1 [Example 51, N-[[1-(5-phenylthieno[2,3-d]pyrimidin-4-yl)-4-piperidyl]methyl]propan-1-amine]",500 to 3000

# Results, then the compound that gave them:
row,IC50 [nM],Compound
1,< 500,"5-phenyl-thieno[2,3-d]pyrimidine [Example 160]"
2,< 500,"5-phenyl-thieno[2,3-d]pyrimidine-2-carbonitrile [Example 338]"
3,3000 to 10000,"CN1CCCC1CCOCC1CCN(c2ncnc3sccc23)CC1 (stereo not shown) [Example 3, 4-[4-[2-(1-methylpyrrolidin-2-yl)ethoxymethyl]-1-piperidyl]thieno[2,3-d]pyrimidine]"
4,< 500,"c1ccc(-c2csc3ncnc(N4CCC(COCCN5CCCC5)CC4)c23)cc1 [Example 5, 5-phenyl-4-[4-(2-pyrrolidin-1-ylethoxymethyl)-1-piperidyl]thieno[2,3-d]pyrimidine]"
5,< 500,"CN(C)CCOCC1CCN(c2nc(N3CCC(C(N)=O)C3)nc3scc(-c4ccccc4)c23)CC1 (stereo not shown) [Example 14, 1-[4-[4-(2-dimethylaminoethyloxymethyl)-1-piperidyl]-5-phenyl-thieno[2,3-d]pyrimidin-2-yl]pyrrolidine-3-carboxamide]"
6,500 to 3000,"CC(C)OCC1CCN(c2ncnc3scc(-c4ccccc4)c23)CC1 [Example 15, 4-[4-(isopropoxymethyl)-1-piperidyl]-5-phenyl-thieno[2,3-d]pyrimidine]"
7,500 to 3000,"c1ccc(-c2csc3ncnc(N4CCC(COC5CCOC5)CC4)c23)cc1 (stereo not shown) [Example 16, 5-phenyl-4-[4-(tetrahydrofuran-3-yloxymethyl)-1-piperidyl]thieno[2,3-d]pyrimidine]"
8,< 500,"CCc1c(C)sc2ncnc(N3CCC(COCCN4CCOCC4)CC3)c12 [Example 23, 4-[2-[[1-(5-ethyl-6-methyl-thieno[2,3-d]pyrimidin-4-yl)-4-piperidyl]methoxy]ethyl]morpholine]"
9,< 500,"CC(C)c1cc2c(N3CCC(COCCC4CCCCN4C)CC3)ncnc2s1 (stereo not shown) [Example 25, 6-isopropyl-4-[4-[2-(1-methyl-2-piperidyl)ethoxymethyl]-1-piperidyl]thieno[2,3-d]pyrimidine]"
10,< 500,"O=[N+]([O-])c1ccc(-c2csc3ncnc(N4CCC(COCCN5CCCC5)CC4)c23)cc1 [Example 46, 5-(4-nitrophenyl)-4-[4-(2-pyrrolidin-1-ylethoxymethyl)-1-piperidyl]thieno[2,3-d]pyrimidine]"
11,< 500,"Fc1ccc(-c2csc3ncnc(N4CC5C(COCCN6CC7CC6CO7)C5C4)c23)cc1 (stereo not shown) [Example 48, 5-[2-[[3-[5-(4-fluorophenyl)thieno[2,3-d]pyrimidin-4-yl]-3-azabicyclo[3.1.0]hexan-6-yl]methoxy]ethyl]-2-oxa-5-azabicyclo[2.2.1]heptane]"
12,500 to 3000,"CC1CCN(CC2CCN(c3ncnc4scc(-c5ccccc5)c34)CC2)C1 (stereo not shown) [Example 50, 4-[4-[(3-methylpyrrolidin-1-yl)methyl]-1-piperidyl]-5-phenyl-thieno[2,3-d]pyrimidine]"
13,500 to 3000,"FC(F)CNCC1CCN(c2ncnc3scc(-c4ccccc4)c23)CC1 [Example 52, 2,2-difluoro-N-[[1-(5-phenylthieno[2,3-d]pyrimidin-4-yl)-4-piperidyl]methyl]ethanamine]"
